In patent US12053506B2, “Romo1-derived antimicrobial peptides and variants thereof” (priority 2019, dated 2024):
No end group written: not given here.

Columns and labels:
[1] = tested on: Human vascular endothelial cells (HUVECs); test: Toxicity to human vascular endothelial cells (MTT); format: cell-based; details: 0 μg/ml to 300 μg/ml; FIG. 5
Description: PBS was used as a control.
The HUMEC medium was replaced with fresh medium, and KU-5878, melittin or magainin 2 were dispensed at various concentrations (0 μg/ml to 300 μg/ml). Then, each well was treated with 100 μl of MTT reagent and incubated at 37° C. for 2 hours. Then, the medium and the peptide were carefully removed so as not to separate the cells, and 100 μl of DMSO (dimethyl sulfoxide) was added to each well, and the absorbance at a wavelength of 570 nm was measured using a spectrophotometer. Relative cell viability was calculated as a percentage of the viability of untreated control cells.

[2] = tested on: Streptomyces sindenensis (ATCC 12392); test: Minimum bactericidal concentration (MBC) assay; format: cell-based
Description: (§1) The minimum bactericidal concentration assay was the same as the method used in Example 1.
(§2) Specifically, each type of bacteria was cultured in 3% (w/v) TSB (Tryptic Soy Broth) liquid medium at 37° C. and 200 rpm for 4 hours, and then further cultured under the same conditions for 3 hours to a concentration of 5×10^6 CFU/ml. Strain solutions were prepared by diluting each of the […] of 2×10^5 CFU/ml.
(§3) Then, the KU-5878 peptide at varying concentrations (0 μg/ml to 300 μg/ml) was dispensed into each well of a 96-well microplate, and 100 μl (1×10^5 CFU/ml) of each of the prepared strain solutions was added thereto, mixed therewith, and allowed to react with the peptide in an incubator at 37° C. for 1 hour.
(§4) In addition, 10 μl of each reaction solution of the peptide and the strain was plated on the TS agar plate at a constant size, and incubated in an incubator at 37° C. for 18 hours, and then colony formation on the plate was checked. The minimum bactericidal concentration was defined as the minimum concentration of the peptide at which no colony was formed, and the experimental results are shown in Table 2 below.

[3] = tested on: Escherichia coli (ATCC 25922); test: Minimum bactericidal concentration (MBC) assay; format: cell-based
Description: as §1, §2, §3, §4

[4] = tested on: Bacillus subtilis (ATCC 6633); test: Minimum bactericidal concentration (MBC) assay; format: cell-based
Description: as §1, §2, §3, §4

[5] = tested on: Acinetobacter baumannii (ATCC 19606); test: Minimum bactericidal concentration (MBC) assay; format: cell-based
Description: as §1, §2, §3, §4

CRPA = test: MBC, evaluation of antibacterial activities of KU-5878 variants; format: cell-based; details: Tables 11-15, no unit printed
[6] = tested on: Pseudomonas aeruginosa and Staphylococcus aureus; test: MBC assay, antibacterial activity of Romo1-derived peptides compared in words; format: cell-based; details: Table 1 peptides
Description: Romo1 protein comprises two α-helices. The present inventors synthesized the α-helix 2 region having both hydrophilicity and hydrophobicity, and evaluated the antibacterial activity thereof using minimum bactericidal concentration (MBC) assay. The α-helix 2 region was named KU-5279 (the 52-79 amino acid region of Romo1 protein). Then, in order to identify peptides that are beneficial for human application and have excellent antibacterial activity, the present inventors synthesized several peptides comprising a sequence of contiguous amino acids starting at any amino acid selected from the 52-79 amino acid region of Romo1 protein, and comparatively evaluated the antibacterial activities of the peptides by minimum bactericidal concentration assay (See Table 1 below for information on each peptide). Evaluation of the antibacterial activity of each peptide by minimum bactericidal concentration assay was specifically performed as follows. First, each of Pseudomonas aeruginosa (ATCC 27853) and Staphylococcus aureus (ATCC 29213) was cultured in 3% (w/v) TSB (Tryptic Soy Broth) liquid medium at 37° C. and 200 rpm for 4 hours, and then further cultured under the same conditions for 3 hours to a concentration of 5×10^6 CFU/ml. […]

[7] = tested on: Staphylococcus aureus, Pseudomonas aeruginosa, methicillin-resistant Staphylococcus aureus and multidrug-resistant Pseudomonas aeruginosa; test: Bacteria remaining in the blood of intravenously infected mice; format: in vivo, mice (C57BL/6); details: 10 mg/kg intravenous 1 hour after infection; blood collected 40 minutes after injection; compared with LL-37, magainin 2, daptomycin
Description: Specifically, Staphylococcus aureus, Pseudomonas aeruginosa, methicillin-resistant Staphylococcus aureus and multidrug-resistant Pseudomonas aeruginosa was cultured in 3% (w/v) TSB liquid medium at 37° C. and 200 rpm for 4 hours, and then further cultured under the same conditions for 3 hours to a concentration of 5×10^9 CFU/ml. Strain solutions were prepared by diluting each of the further cultured strains with PBS solution to a final concentration of 1×10^5 CFU/μl.
Next, 100 μl of each strain solution was injected intravenously (IV) into the tail vein of each of 10-week-old male mice (C57BL/6). After one hour, KU-5878 was intravenously injected at a concentration of 10 mg/kg. As a control, PBS was intravenously injected at a concentration of 10 mg/kg, and as a positive control, LL-37, magainin 2, or daptomycin was intravenously injected at a concentration of 10 mg/kg.
40 minutes after the intravenous injection of each drug, about 1 cm from the tail end of each mouse was cut using surgical scissors, and 10 μl of the blood at the end of the cut was collected and diluted in PBS. The diluted blood sample was plated on a previously prepared TSB agar plate and incubated in an incubator at 37° C. for 18 hours, and the formed colonies were counted for comparison.

Sequence: KTMMQSGGTFGTFMAIGMGIR [KU-5878]
- toxicity to the HUVECs (relative cell viability, MTT) [1]: very low toxicity
- MBC value (μg/ml), Streptomyces sindenensis [2]: 95 µg/mL
- MBC value (μg/ml), Escherichia coli [3]: 85 µg/mL
- MBC value (μg/ml), Bacillus subtilis [4]: 90 µg/mL
- MBC value (μg/ml), Acinetobacter baumannii [5]: 100 µg/mL
- MBC CRPA (CRPA): 110 µg/mL
- antibacterial activity by MBC assay, in words [6]: three times better antibacterial activity than KU-5279
- number of bacteria remaining in the blood vessels of the mice [7]: most greatly decreased
